The target of the experiment is T1, G1 APOL1 (Homo sapiens, UniProt O14791, I384M/S342G).
T1 construct: expressed in transfected cells
T1 sequence (O14791 28-398 S342G/I384M): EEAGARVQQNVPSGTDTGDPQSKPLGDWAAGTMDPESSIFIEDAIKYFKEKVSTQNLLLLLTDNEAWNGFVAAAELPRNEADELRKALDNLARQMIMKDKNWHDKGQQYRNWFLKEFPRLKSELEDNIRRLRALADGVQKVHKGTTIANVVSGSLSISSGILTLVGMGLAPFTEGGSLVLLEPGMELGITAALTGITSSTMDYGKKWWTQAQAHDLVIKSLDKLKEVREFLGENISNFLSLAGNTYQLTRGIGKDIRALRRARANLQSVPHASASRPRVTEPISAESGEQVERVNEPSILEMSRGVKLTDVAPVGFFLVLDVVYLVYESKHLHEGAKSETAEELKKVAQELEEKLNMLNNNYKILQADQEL
Put plainly: Acute APOL1 Thallium Assay with inducible stable clones of HEK 293 cells. Conditions: read-out: Thallium Assay (IC50). The class given is cell-based. The text has this: Acute APOL1 Thallium Assay with Inducible Stable Clones of HEK 293 Cells
Apolipoprotein L1 (APOL1) proteins form potassium-permeable cation pores in the plasma membrane. APOL1 risk variants (G1 and G2) induce greater potassium flux than G0 in HEK293 cells. This assay exploits the permeability of thallium (Tl+) through ligand-gated potassium channels. The dye produces a bright fluorescent signal upon binding to Tl+ conducted through potassium channels. The intensity of the Tl+ signal is proportional to the number of potassium channels in the open state. Therefore, it provides a functional indication of the potassium channel activities. During the initial dye-loading step, the Tl+ indicator dye as an acetoxymethyl (AM) ester enters the cells through passive diffusion. Cytoplasm esterases cleave the AM ester and relieve its active thallium-sensitive form. The cells are then stimulated with Tl+. The increase of fluorescence in the assay represents the influx of Tl+ into the cell specifically through the potassium channel (i.e. through APOL1 pores), providing a functional measurement of potassium channel/pore activity. The Thallium assay is conducted with cells expressing G1 APOL1.
APOL1 Cell Line (HEK T-Rex Stable Inducible Cell Line) • HEK T-Rex System • Tetracycline (Tet) inducible mammalian expression system. • Stably express the Tet repressor to regulate transcription. • Expression under the full-length CMV promoter. • APOL1 stable inducible cell line Clone used: G1 DC3.25
Tissue Culture Media • Cell Culture Medium • DMEM+10% FBS+P/S+5 μg/mL blasticidin+1 μg/mL puromycin. • 500 mL DMEM+55 mL FBS+5 mL P/S+280 μL blasticidin S HCl (10 mg/mL)+56 μL puromycin (10 mg/mL). • Cell Assay Medium • DMEM with 2% FBS+pen strep.
Instruments and Equipment • Nuaire cell culture hood, Cat. No. 540-600 • 37° C./5% CO2 incubator link to robotic arm, Liconic: STX110 • Molecular Devices FLIPR^Tetra High throughput cellular screening system, Cat. No. FT0324, Molecular Devices • ThermoFisher MultiDrop 384, Cat. No. 5840300 • Biotek Microfill, Cat. No. ASF1000A-4145 • BioRad TC10 cell counter, Cat. No. 145-0010 Assay Procedures
Cells Scaled Up from Frozen Vials • APOL1 G1 3.25 (HEK293 T-Rex) frozen vials: 5 million cells per vial • Step 1, Day 1: Defrost frozen vial into T-225. • Step 2, Day 5: (when 85% confluent): Split one T-225 at 3×10^6 cells per flask. • Step 3, Day 8: Splits cells to set up for the assay plates as described below.
T-Rex APOL1 HEK cells are split twice per week to keep the confluence state below 85% of the culture flask surface area. Cells can be kept until passage 25. • Cell Culture Medium • DMEM high glucose+10% FBS, +P/S, +5 μg/mL blasticidin, +1 μg/mL puromycin. • 500 mL DMEM, +55 mL FBS, +5 mL P/S, +280 μL blasicidin 10 mg/mL, +56 μL Puromycin 10 mg/mL. • Assay Media • Opti-MEM reduced serum medium from Invitrogen.
Preparation of Cell Assay Plates • Culture medium is removed from the x cm^2 T-flask by aspiration. • The cell monolayer is rinsed with PBS 1× at room temperature. PBS is removed by aspiration. • Cells are trypsinized using Trypsin. • The flasks are incubated at room temperature for 2-3 minutes. • Complete DMEM medium is then added. Cell suspension is then transferred to a 50 mL Falcon polypropylene tube. • Cells are then counted using a Biorad TC10 cell counter and the required amount of cells are centrifuged at 1200 RPM for 5 minutes. Required amount is 1.3×10^6 cells/mL APOL1 T-Rex HEK cells. • The pellet is suspended in the assay medium. • Using the MultiDrop, add 20 μL to each well (corresponds to 26000 cells total per well) of a 384-well black, transparent, flat bottom Poly-D coated plate. • Tetracycline as prepared in the following section is added to the cells before plating to induce APOL1 expression. • Plates are left at room temperature for 20 to 30 minutes before incubation at 37° C. and 5% CO2. […]

Where [1] appears, read: HEK 293 T-Rex cells expressing G1 APOL1.

These results are taken from patent US12116343B2, “Inhibitors of APOL1 and methods of using same” (Vertex Pharmaceuticals Incorporated, priority 2020, dated 2024).

Where two headings read alike, the source gives them in different places. Bounds are passed on as bounds.

On to `O=C(NCC(F)F)N1CC(c2c(-c3ccc(F)cc3)[nH]c3c(F)cc(F)cc23)C1` [Compound 465, 3-(5,7-difluoro-2-(4-fluorophenyl)-1H-indol-3-yl)-N-(2,2-difluoroethyl)azetidine-1-carboxamide], for which the IC50 (in general, the point on the concentration scale where inhibition reaches its midpoint) (Table 24, Compounds 287 to 465) lay within 250 to 1000 nM.
Take `O=C(NCC1CCNC1=O)NC[C@H]1C[C@H](c2c(-c3ccc(F)cc3)[nH]c3c(F)cc(F)cc32)C1` (some centres unmarked) [Compound 417]: the IC50 (Table 24, Compounds 287 to 465) is over 1000 nM.
As to `O=C(NC[C@H]1CC[C@@H](CO)O1)NC[C@H]1C[C@H](c2c(-c3ccc(F)cc3)[nH]c3c(F)cc(F)cc32)C1` [Compound 422], where the note is “Table 24, Compounds 287 to 465”, the IC50 is over 1000 nM.
With `C[C@@H](O)CNC(=O)N[C@H]1C[C@H](c2c(-c3ccc(F)cc3)[nH]c3c(F)cc(F)cc32)C1` [Compound 296], the IC50 (Table 24, Compounds 287 to 465) is over 1000 nM.
As for `COC1CC1NC(=O)O[C@H]1C[C@H](c2c(-c3ccc(F)cc3)[nH]c3c(F)cc(F)cc32)C1` (some centres unmarked) [Compound 376], the IC50 (Table 24, Compounds 287 to 465) is over 1000 nM.
As to `O=C(N[C@H]1CCOC1)[C@H]1C[C@@H](c2c(-c3ccc(F)cc3)[nH]c3c(F)cc(F)cc32)C1` [Compound 246], the IC50 under setting [1] was over 1000 nM.
In the case of `O=C(NC(CO)(CO)CO)O[C@H]1C[C@H](c2c(-c3ccc(F)cc3)[nH]c3c(F)cc(F)cc32)C1` [Compound 349, (1r, 3r)-3-(5,7-difluoro-2-(4-fluorophenyl)-1H-indol-3-yl)cyclobutyl (1,3-dihydroxy-2-(hydroxymethyl)propan-2-yl)carbamate], the IC50 (Table 24, Compounds 287 to 465) was under 250 nM.
Consider `O=C(NCCO)[C@H]1C[C@@H](c2c(-c3ccc(F)cc3)[nH]c3c(F)cc(F)cc32)C1` [Compound 237], for which, under setting [1], the IC50 lay within 250 to 1000 nM.
For the compound `Cn1cnc(CNC(=O)C2(F)CC(c3c(-c4ccc(F)cc4)[nH]c4c(F)cc(F)cc34)C2)c1` (centres unmarked) [Compound 286], the IC50 under setting [1] is under 250 nM.
Still for that read-out and setting: with `C[C@H](CO)N(C)C(=O)[C@H]1C[C@H](c2c(-c3ccc(F)cc3)[nH]c3c(F)cc(F)cc32)C1` [Compound 190] the figure was 250 to 1000 nM.
As for `Cc1cc(CNC(=O)C2CC(Cc3c(-c4ccc(F)cc4)[nH]c4c(F)cc(F)cc34)C2)nn1C` (centres unmarked) [Compound 340], the IC50 (Table 24, Compounds 287 to 465) was over 1000 nM.
Still for that read-out and setting: with `O=C(CC1CC(c2c(-c3ccc(F)cc3)[nH]c3c(F)cc(F)cc23)C1)NC1(CO)CC1` (centres unmarked) [Compound 453] the figure was 250 to 1000 nM; with `O=C(NC[C@H]1C[C@H](c2c(-c3ccc(F)cc3)[nH]c3c(F)cc(F)cc32)C1)NC1(CO)CC(F)(F)C1` [Compound 400], over 1000 nM.
Same read-out and setting: next, `CC(C)(O)CCNC(=O)C1CC(Cc2c(-c3ccc(F)cc3)[nH]c3c(F)cc(F)cc23)C1` (centres unmarked) [Compound 327]: over 1000 nM; `O=C(NCC(O)CO)O[C@H]1C[C@H](c2c(-c3ccc(F)cc3)[nH]c3c(F)cc(F)cc32)C1` (some centres unmarked) [Compound 367]: over 1000 nM.
Same read-out and setting: next, `CC(C)C[C@H](CO)NC(=O)C1CC(Cc2c(-c3ccc(F)cc3)[nH]c3c(F)cc(F)cc23)C1` (some centres unmarked) [Compound 302]: over 1000 nM; `O=C(NCc1cnco1)O[C@H]1C[C@H](c2c(-c3ccc(F)cc3)[nH]c3c(F)cc(F)cc32)C1` [Compound 353]: 250 to 1000 nM; `CC(CO)N(C)C(=O)NC[C@H]1C[C@H](c2c(-c3ccc(F)cc3)[nH]c3c(F)cc(F)cc32)C1` (mixture of isomers) [Compound 412]: over 1000 nM.
With `O=C(NCC1(CO)COC1)NC[C@H]1C[C@H](c2c(-c3ccc(F)cc3)[nH]c3c(F)cc(F)cc32)C1` [Compound 396], the IC50 (Table 24, Compounds 287 to 465) was over 1000 nM.
The same measure, in the same setting: with `Cc1noc(CNC(=O)C2CC(Cc3c(-c4ccc(F)cc4)[nH]c4c(F)cc(F)cc34)C2)n1` (centres unmarked) [Compound 304] the figure was over 1000 nM.
For `O=C(NC1CC(O)C1)[C@H]1C[C@@H](c2c(-c3ccc(F)cc3)[nH]c3c(F)cc(F)cc32)C1` (some centres unmarked) [Compound 239], the IC50 under setting [1] is over 1000 nM.
Consider `C[C@@H](CO)NC(=O)N[C@H]1C[C@H](c2c(-c3ccc(F)cc3)[nH]c3c(F)cc(F)cc32)C1` [Compound 295, 1-((1r,3S)-3-(5,7-difluoro-2-(4-fluorophenyl)-1H-indol-3-yl)cyclobutyl)-3-((S)-1-hydroxypropan-2-yl)urea], for which, under “Table 24, Compounds 287 to 465”, the IC50 lay in the range of 250 to 1000 nM.
`O=C1NC[C@@H](O)[C@@H]1NC(=O)[C@H]1C[C@H](c2c(-c3ccc(F)cc3)[nH]c3c(F)cc(F)cc32)C1` [Compound 229]: the IC50 under setting [1] is under 250 nM.
Consider `C[C@H](CO)NC(=O)C1CCC(c2c(-c3ccc(F)cc3)[nH]c3c(F)cc(F)cc23)C1` (stereo partly drawn) [Compound 463, 3-[5,7-difluoro-2-(4-fluorophenyl)-1H-indol-3-yl]-N-[(1R)-2-hydroxy-1-methyl-ethyl]cyclopentanecarboxamide], for which, for the setting “Table 24, Compounds 287 to 465”, the IC50 is over 1000 nM.
For `CN(C(=O)NC[C@H]1C[C@H](c2c(-c3ccc(F)cc3)[nH]c3c(F)cc(F)cc32)C1)C1COCC1O` (some centres unmarked) [Compound 415], the IC50 (Table 24, Compounds 287 to 465) was over 1000 nM.
On the same count and under the same terms, with `NC(=O)CNC[C@H]1C[C@H](c2c(-c3ccc(F)cc3)[nH]c3c(F)cc(F)cc32)C1` [Compound 445, 2-((((1r,3r)-3-(5,7-difluoro-2-(4-fluorophenyl)-1H-indol-3-yl)cyclobutyl)methyl)amino)acetamide] the figure was under 250 nM.
Same read-out and setting: next, `O=C(NCC1(O)CC1)NC[C@H]1C[C@H](c2c(-c3ccc(F)cc3)[nH]c3c(F)cc(F)cc32)C1` [Compound 399]: over 1000 nM.
Take `O=C(NC(CO)(CO)CO)[C@H]1C[C@H](c2c(-c3ccc(F)cc3)[nH]c3c(F)cc(F)cc32)C1` [Compound 226]: the IC50 under setting [1] is under 250 nM.
Regarding `C[C@H](CO)N(C)C(=O)NC[C@H]1C[C@H](c2c(-c3ccc(F)cc3)[nH]c3c(F)cc(F)cc32)C1` [Compound 404], the IC50 (Table 24, Compounds 287 to 465) was over 1000 nM.
Still for that read-out and setting: next, `O=C(Nc1c[nH][nH]c1=O)C1CC(Cc2c(-c3ccc(F)cc3)[nH]c3c(F)cc(F)cc23)C1` (centres unmarked) [Compound 310]: over 1000 nM; `C[C@@H](CO)NC(=O)O[C@H]1C[C@H](c2c(-c3ccc(F)cc3)[nH]c3c(F)cc(F)cc32)C1` [Compound 357]: 250 to 1000 nM.
The same measure, in the same setting: next, `O=C(NCCO)C1CC(Cc2c(-c3ccc(F)cc3)[nH]c3c(F)cc(F)cc23)C1` (centres unmarked) [Compound 299, 3-[[5,7-difluoro-2-(4-fluorophenyl)-1H-indol-3-yl]methyl]-N-(2-hydroxyethyl)cyclobutane-1-carboxamide]: 250 to 1000 nM.
`CC(CO)NC(=O)[C@H]1C[C@@H](c2c(-c3ccc(F)cc3)[nH]c3c(F)cc(F)cc32)C1` (mixture of isomers) [Compound 243]: the IC50 under setting [1] is over 1000 nM.
As to `O=C(NCC(F)F)O[C@H]1C[C@H](c2c(-c3ccc(F)cc3)[nH]c3c(F)cc(F)cc32)C1` [Compound 351], the IC50 (Table 24, Compounds 287 to 465) is 250 to 1000 nM.
As for `O=C1CN(C(=O)[C@H]2C[C@@H](c3c(-c4ccc(F)cc4)[nH]c4c(F)cc(F)cc43)C2)CCN1` [Compound 275], the IC50 under setting [1] is over 1000 nM.
